The record followed here is ChEMBL document CHEMBL2157927, “Imidazotriazinone compounds: patent highlight” (ACS Med Chem Lett, 2012).

Experiment [1] in a line: Selectivity ratio of IC50 for PDE1B to IC50 for PDE9.
A short description of experiment [2]: Inhibition of PDE9 by spectrophotometric analysis.
The nature of experiment [3]: Selectivity ratio of IC50 for PDE1A to IC50 for PDE9.

Usually IC50 stands for the concentration that gives 50% inhibition. Read a low IC50 as inhibition by little substance. In the case of `C[C@@H]1CN(Cc2cccc(F)c2)C[C@H]1c1nn2c(C3CCOCC3)ncc2c(=O)[nH]1`, the Ratio IC50 in experiment [1] and in experiment [3] was over 1000 in each case. This compound showed an IC50 in experiment [2] of under 1000 nM.

In turn, `C[C@@H]1CN(Cc2ncccn2)C[C@H]1c1nn2c(C3CCOCC3)ncc2c(=O)[nH]1` came in with a half-inhibitory concentration (IC50) in experiment [2] of over 10000 nM.

In experiment [2], `C[C@@H]1CN(Cc2cnccn2)C[C@H]1c1nn2c(C3CCOCC3)ncc2c(=O)[nH]1` displayed an IC50 of 1000 nM.
